Test results reported in paper doi:10.1101/2023.02.14.528348v1, “Plasticity of the binding pocket in peptide transporters underpins promiscuous substrate recognition” (biorxiv, 2023).
Marks after values point to notes of the source that are not given here. Values belong to the molecule of their own block, whether it stands above or below them. Residues, ends and D or L forms follow the SMILES beside them.

Key:
DtpB [1] = molecular target: T1, DtpB (Escherichia coli, UniProt P36837); assay: X-ray crystal structure of complex; format: binding; conditions: crystallised with nanobody Nb132; inward-facing open; central cavity
T1 construct: purified membrane protein; reconstituted in liposomes for transport; Nb132 complex for crystals; host, tags and borders only in supplement
T1 sequence (P36837 1-489): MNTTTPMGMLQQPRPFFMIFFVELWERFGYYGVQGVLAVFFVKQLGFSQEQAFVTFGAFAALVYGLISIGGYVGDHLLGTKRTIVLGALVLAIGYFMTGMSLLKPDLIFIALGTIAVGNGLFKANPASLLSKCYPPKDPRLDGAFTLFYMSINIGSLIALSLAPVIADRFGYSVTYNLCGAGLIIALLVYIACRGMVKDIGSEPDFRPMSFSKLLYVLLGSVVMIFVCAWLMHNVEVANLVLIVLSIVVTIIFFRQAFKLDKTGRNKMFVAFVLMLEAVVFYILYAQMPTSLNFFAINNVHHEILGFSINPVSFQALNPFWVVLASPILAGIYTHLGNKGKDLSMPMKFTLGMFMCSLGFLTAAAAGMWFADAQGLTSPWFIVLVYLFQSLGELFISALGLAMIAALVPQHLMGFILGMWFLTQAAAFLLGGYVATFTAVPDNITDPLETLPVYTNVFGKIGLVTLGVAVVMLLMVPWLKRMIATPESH

DtpB [2] = molecular target: T1, DtpB; assay: thermal unfolding titration, irreversible kinetic (Hall) model; format: binding
DtpB [3] = molecular target: T1, DtpB; assay: inhibition of AA transport, pyranine fluorescence assay in proteoliposomes; format: biochemical
DtpB [4] = molecular target: T1, DtpB; assay: thermal unfolding titration, irreversible kinetic (Hall) model; also co-crystal structure; format: binding; conditions: purified protein
DtpB [5] = molecular target: T1, DtpB; assay: inhibition of AA transport, pyranine fluorescence assay in proteoliposomes; format: biochemical; remark: listed apart in the source

Kd (DtpB [2]): 206 ± 126 µM
SMILES: O=C(O)[C@H](Cc1ccc(O)cc1)NC(=O)[C@@H]1CCCN1 [PY] (H-Pro-Tyr-OH)

Kd (DtpB [2]): 352 ± 38 µM
SMILES: N[C@@H](CO)C(=O)N[C@@H](Cc1c[nH]cn1)C(=O)O [SH] (H-Ser-His-OH)

IC50 (DtpB [3]): 2370 ± 680 µM
Ki (DtpB [5]): 250 ± 80 µM
SMILES: C[C@H](N)C(=O)N[C@@H](Cc1ccccc1)C(=O)O [AF, Ala-Phe]
KD (DtpB [4]): Peptide affinity is color-coded with AF having the highest affinity

Kd (DtpB [2]): 100 ± 40 µM
SMILES: C[C@H](N)C(=O)N[C@@H](Cc1c[nH]cn1)C(=O)O [AH] (H-Ala-His-OH)

The next lines start with the molecule.

SMILES: CC(C)[C@H](NC(=O)[C@@H](N)CCCCN)C(=O)O [KV, Lys-Val] (H-Lys-Val-OH)
X-ray crystal structure of complex (DtpB [1]): Q34 interacts with the ε-amino group of K1* in KV

SMILES: C[C@H](N)C(=O)N[C@@H](CCCCN)C(=O)O [AK] (H-Ala-Lys-OH)
Kd (DtpB [2]): 1770 ± 90 µM

SMILES: CC[C@H](C)[C@H](NC(=O)[C@H](C)N)C(=O)O [AI, Ala-Ile] (H-Ala-Ile-OH)
X-ray crystal structure of complex (DtpB [1]): Structure of DtpB bound to nanobody Nb132 and the dipeptide AI
